# Patent publication US11884734B2, “Anti-MET antibodies and methods of use thereof” (Celldex Therapeutics, Inc., priority 2015, dated 2024)
# Columns and labels:
# MET [1] = molecular target: T1, MET (Homo sapiens, UniProt P08581); assay: MET shedding ELISA (sMET-ECD release) in A549 cells; type: cell-based; set-up: cell lines expressing wild-type MET such as A549 cells; endogenous in cells; host or cells: A549; conditions: 24 hrs, 1 nM of antibody, FIG. 12A
# U87MG tumor cells = assay: U87MG orthotopic mouse model (bioluminescence); type: in vivo; conditions: 25 mg/kg; compared with control chimeric IgG1 anti-KLH antibody
# Procedure: The ability of the anti-MET antibodies to inhibit tumor growth in vivo is assessed as described in Sections 6.2.1.3, 6.2.1.4, and 6.2.1.5. […] Treatment was performed biweekly, every three to four days, for seven weeks.
# [2] = test system: MET, AKT and MAPK phosphorylation; assay: Akt and MAPK phosphorylation analysis by western blot in A549 cells; type: cell-based, human; conditions: HGF treatment
# Procedure: Western blots were generated from total protein separated on a 10% SDS-PAGE gel. Resolved protein was transferred to nitrocellulose (Bio-Rad), blocked for 1 h with 5% skim milk at 25° C., and then incubated with the indicated antibody overnight at 4° C. The anti-pAkt antibody, anti-pMAPK antibody (Cell Signaling cat. No. 9271 and Cell Signaling cat. No. 4370, respectively), and anti-1234/1235 MET XP antibody (Cell Signaling cat. No. 3077) were used at a concentration of 1 μg/mL in 5% skim milk. Secondary mouse and rabbit antibodies (GE Healthcare) were used at a 1:5000 dilution for 1 h at 25° C. SuperSignal® West Picto Chemiluminescent HRP Substrate (Thermo Scientific cat. No. 34078) was used as directed.
# MET [3] = molecular target: T2, MET (Homo sapiens, UniProt P08581, DEL964-1010); assay: MET degradation in H596 cells (exon 14 deleted MET); type: cell-based; conditions: 1 nM HGF, 24 hrs
# T2 construct: In a non-small-cell lung cancer cell line H596, a functional MET protein is expressed without the 47 amino acids encoded by exon 14; endogenous in cells; host or cells: H596 (NSCLC / adenosquamous carcinoma)
# From the text: (§1) MET exon 14 mutations have been reported in many cancers (The Cancer Genome Atlas Research Network, 2014, Nature, 511(7511):543-550; Frampton et al., 2015, Cancer Discov. 5(8):850-859). MET exon 14 mutations confer reduced HGF-induced receptor degradation. Deletion of exon 14 (Leu964-Asp1010) removes the Tyr1003 site necessary for Cbl binding leading to a substantial decrease HGF-induced receptor degradation as previously reported (Kong-Beltram et al., 2006, Cancer Res. 66(1):283-289). […] In a non-small-cell lung cancer cell line H596, a functional MET protein is expressed without the 47 amino acids encoded by exon 14 (Kong-Beltram et al., 2006, Cancer Res. 66(1):283-289).
# MET [4] = molecular target: T1, MET; assay: HGF-induced MET degradation in U87MG cells; type: cell-based; conditions: U87MG cells (wild-type MET)
# From the text: as §1
# MET [5] = molecular target: T1, MET; assay: MET ubiquitination in A549 cells (immunoprecipitation/immunoblot); type: cell-based; set-up: cell lines expressing wild-type MET such as A549 and U87MG cells; endogenous in cells; host or cells: A549; conditions: 1 nM, 15 min, FIG. 12B
# From the text: Whether the anti-MET antibodies promote MET ubiquitination and degradation was investigated next. […] Cell lysates were precipitated with anti-ubiquitin antibody conjugated agarose (Santa Cruz) followed by immunoblotting with anti-MET antibody (Cell Signaling Technology). […] Thus, these antibodies promote receptor degradation utilizing the ubiquitination mechanism instead of protease-mediated shedding. This is in contrast with membrane protease-mediated receptor shedding observed previously with antibodies such as DN30 (Schleter, 2010, J. Biol. Chem. 285(34):26335-26340).
# MET [6] = molecular target: T1, MET; assay: HGF-induced MET degradation in A549 cells; type: cell-based; set-up: cell lines expressing wild-type MET such as A549 and U87MG cells; endogenous in cells; host or cells: A549; conditions: A549 cells (wild-type MET)
# From the text: as §1
molecule,measurement,setting,value
"CCCCCCCCCCCCCC(=O)O[C@@H]1[C@@H](C)[C@@]2(O)[C@@H](C=C(CO)C[C@]3(O)C(=O)C(C)=C[C@@H]23)[C@@H]2C(C)(C)[C@]12OC(C)=O [PMA, phorbol 12-myristate 13-acetate]",MET shedding (release of sMET-ECD into culture medium),MET [1],induced substantial MET shedding
C[C@@H](Oc1cc(-c2cnn(C3CCNCC3)c2)cnc1N)c1c(Cl)ccc(F)c1Cl [crizotinib],tumor growth (bioluminescence),U87MG tumor cells,resulted in similar tumor growth
same,"MET protein levels, western blot",[2],not observed
same,"activation of MET (phosphorylated MET), western blot",[2],inhibited activation of MET
same,"activation of downstream signaling components Akt and MAPK (phosphorylation), western blot",[2],reduces the activation of downstream signaling components Akt and MAPK
HGF: MET ligand used to stimulate cells,receptor degradation,MET [3],30%
same,receptor degradation,MET [4],approximately 80%
same,MET receptor ubiquitination,MET [5],induced potent receptor ubiquitination
same,receptor degradation,MET [6],approximately 80%
